Paper PMC9186362, “Design and biological evaluation of substituted 5,7-dihydro-6H-indolo[2,3-c]quinolin-6-one as novel selective Haspin inhibitors” (Journal of Enzyme Inhibition and Medicinal Chemistry, 2022)

Key:
Test in all cases: LanthaScreen Binding - Eu-anti-GST
ACVR2A = molecular target: T1, ACVR2A (Homo sapiens, UniProt P27037); conditions: read-out: Percentage of inhibition
T1 construct: purchased Life Technologies (SelectScreen)
Protocol: (§1) We further evaluated the selectivity profile of compound 55 on a larger panel of kinases (SelectScreen Whole Panel, Life Technologies). The inhibition profile of 55, evaluated at 1 μM, is depicted on a dendrogram on Figure 3 where kinases inhibited by a minimum of 80% are shown. A full list of the kinases tested is shown on Table S1 in supplementary information.

ALK L1196M = molecular target: T2, ALK L1196M (Homo sapiens, UniProt Q9UM73, L1196M); conditions: read-out: Percentage of inhibition
T2 construct: purchased Life Technologies (SelectScreen Whole Panel service)
Protocol: as §1

AXL R499C = molecular target: T3, AXL R499C (Homo sapiens, UniProt P30530, R499C); conditions: read-out: Percentage of inhibition
T3 construct: purchased Life Technologies
Protocol: as §1

CAMKK2 (CaMKK beta) = molecular target: T4, CAMKK2 (CaMKK beta) (Homo sapiens, UniProt Q96RR4); conditions: read-out: Percentage of inhibition
T4 construct: purchased Life Technologies (SelectScreen Whole Panel service)
Protocol: as §1

CASK = molecular target: T5, CASK (Homo sapiens, UniProt O14936); conditions: read-out: Percentage of inhibition
T5 construct: purchased Life Technologies (SelectScreen Whole Panel)
Protocol: as §1

CDK16 (PCTK1)/cyclin Y = molecular target: T6, CDK16 (PCTK1)/cyclin Y (Homo sapiens, UniProt Q00536); conditions: read-out: Percentage of inhibition
T6 construct: purchased Life Technologies
Protocol: as §1

CDK2/cyclin A1 = molecular target: T7, CDK2/cyclin A1 (Homo sapiens, UniProt P24941); conditions: read-out: Percentage of inhibition
T7 construct: purchased Life Technologies (SelectScreen Whole Panel service)
Protocol: as §1

CDK3/cyclin E1 = molecular target: T8, CDK3/cyclin E1 (Homo sapiens, UniProt Q00526); conditions: read-out: Percentage of inhibition
T8 construct: purchased Life Technologies (SelectScreen Whole Panel)
Protocol: as §1

EGFR (ErbB1) d746-750 = molecular target: T9, EGFR (ErbB1) d746-750 (Homo sapiens, UniProt P00533, DEL746-750); conditions: read-out: Percentage of inhibition
T9 construct: purchased Life Technologies
T9 sequence (P00533 with tags, fused parts or gaps DEL746-750 limits assumed): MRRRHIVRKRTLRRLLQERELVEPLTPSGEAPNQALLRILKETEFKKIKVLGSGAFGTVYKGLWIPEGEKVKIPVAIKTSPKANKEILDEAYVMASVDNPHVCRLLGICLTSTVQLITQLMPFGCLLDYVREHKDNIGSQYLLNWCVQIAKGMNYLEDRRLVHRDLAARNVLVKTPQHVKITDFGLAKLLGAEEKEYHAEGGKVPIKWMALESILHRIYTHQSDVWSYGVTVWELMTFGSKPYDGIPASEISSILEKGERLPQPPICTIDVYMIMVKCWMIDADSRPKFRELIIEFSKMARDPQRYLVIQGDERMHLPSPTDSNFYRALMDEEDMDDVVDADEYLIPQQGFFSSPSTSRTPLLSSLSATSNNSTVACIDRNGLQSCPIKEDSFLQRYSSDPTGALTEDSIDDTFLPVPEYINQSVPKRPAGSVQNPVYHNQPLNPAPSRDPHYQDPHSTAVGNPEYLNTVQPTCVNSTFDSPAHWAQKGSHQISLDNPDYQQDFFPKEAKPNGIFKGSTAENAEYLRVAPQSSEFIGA
Protocol: as §1

EIF2AK2 (PKR) = molecular target: T10, EIF2AK2 (PKR) (Homo sapiens, UniProt P19525); conditions: read-out: Percentage of inhibition
T10 construct: purchased Life Technologies (SelectScreen service)
Protocol: as §1

EPHA6 = EPHA6 (Homo sapiens, UniProt Q9UF33); conditions: read-out: Percentage of inhibition
Protocol: as §1

ERN1 = molecular target: T11, ERN1 (Homo sapiens, UniProt O75460); conditions: read-out: Percentage of inhibition
T11 construct: purchased Life Technologies (SelectScreen Whole Panel service)
Protocol: as §1

ERN2 = molecular target: T12, ERN2 (Homo sapiens, UniProt Q76MJ5); conditions: read-out: Percentage of inhibition
T12 construct: purchased Life Technologies (SelectScreen)
Protocol: as §1

GAK = molecular target: T13, GAK (Homo sapiens, UniProt O14976); conditions: read-out: Percentage of inhibition
T13 construct: purchased Life Technologies (SelectScreen service)
Protocol: as §1

KIT D816V = molecular target: T14, KIT D816V (Homo sapiens, UniProt P10721, D816V); conditions: read-out: Percentage of inhibition
T14 construct: purchased Life Technologies (SelectScreen service)
T14 sequence (P10721 26-976 D816V): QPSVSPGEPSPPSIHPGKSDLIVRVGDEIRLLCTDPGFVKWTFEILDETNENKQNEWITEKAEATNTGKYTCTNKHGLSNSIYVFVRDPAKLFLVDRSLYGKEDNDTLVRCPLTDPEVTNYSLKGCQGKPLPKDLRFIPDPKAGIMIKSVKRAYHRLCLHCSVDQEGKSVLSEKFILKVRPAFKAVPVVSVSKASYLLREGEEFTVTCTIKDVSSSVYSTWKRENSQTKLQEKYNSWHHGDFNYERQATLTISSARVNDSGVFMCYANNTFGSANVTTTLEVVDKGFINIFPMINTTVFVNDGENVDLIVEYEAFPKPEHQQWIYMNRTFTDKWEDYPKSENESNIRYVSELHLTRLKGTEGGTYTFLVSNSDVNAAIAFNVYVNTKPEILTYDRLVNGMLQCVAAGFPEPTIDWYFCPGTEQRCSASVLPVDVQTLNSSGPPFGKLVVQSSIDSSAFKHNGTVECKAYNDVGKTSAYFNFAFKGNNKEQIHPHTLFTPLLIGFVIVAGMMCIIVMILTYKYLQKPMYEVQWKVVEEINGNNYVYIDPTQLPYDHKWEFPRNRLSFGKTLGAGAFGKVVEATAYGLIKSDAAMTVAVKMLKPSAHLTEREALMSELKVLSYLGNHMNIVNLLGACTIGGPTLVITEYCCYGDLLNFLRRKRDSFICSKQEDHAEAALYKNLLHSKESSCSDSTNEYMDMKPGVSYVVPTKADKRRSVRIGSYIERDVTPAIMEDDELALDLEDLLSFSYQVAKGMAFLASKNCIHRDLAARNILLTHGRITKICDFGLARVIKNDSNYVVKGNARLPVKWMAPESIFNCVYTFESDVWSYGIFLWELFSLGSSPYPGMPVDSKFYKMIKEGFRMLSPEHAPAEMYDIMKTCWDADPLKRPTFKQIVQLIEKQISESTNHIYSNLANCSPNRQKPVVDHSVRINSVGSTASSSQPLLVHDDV
Protocol: as §1

KIT N822K = molecular target: T15, KIT N822K (Homo sapiens, UniProt P10721, N822K); conditions: read-out: Percentage of inhibition
T15 construct: purchased Life Technologies (SelectScreen Whole Panel service)
T15 sequence (P10721 26-976 N822K): as the sequence (P10721 26-976 D816V) above, with V791D, N797K counted along it
Protocol: as §1

KIT T670E = KIT T670E (Homo sapiens, UniProt P10721, T670E); conditions: read-out: Percentage of inhibition
Chain of KIT T670E (P10721 26-976 T670E): as the sequence (P10721 26-976 D816V) above, with T645E, V791D counted along it
Protocol: as §1

KIT V559D T670I = molecular target: T16, KIT V559D T670I (Homo sapiens, UniProt P10721, T670I/V559D); conditions: read-out: Percentage of inhibition
T16 construct: purchased Life Technologies
T16 sequence (P10721 26-976 V559D/T670I): as the sequence (P10721 26-976 D816V) above, with V534D, T645I, V791D counted along it
Protocol: as §1

MAP3K14 (NIK) = molecular target: T17, MAP3K14 (NIK) (Homo sapiens, UniProt Q99558); conditions: read-out: Percentage of inhibition
T17 construct: purchased Life Technologies (SelectScreen service)
Protocol: as §1

MAP4K3 (GLK) = MAP4K3 (GLK) (Homo sapiens, UniProt Q8IVH8); conditions: read-out: Percentage of inhibition
Protocol: as §1

MASTL = molecular target: T18, MASTL (Homo sapiens, UniProt Q96GX5); conditions: read-out: Percentage of inhibition
T18 construct: purchased Life Technologies (SelectScreen Whole Panel)
Protocol: as §1

MERTK (cMER) A708S = molecular target: T19, MERTK (cMER) A708S (Homo sapiens, UniProt Q12866, A708S); conditions: read-out: Percentage of inhibition
T19 construct: purchased Life Technologies
Protocol: as §1

MKNK2 (MNK2) = MKNK2 (MNK2) (Homo sapiens, UniProt Q9HBH9); conditions: read-out: Percentage of inhibition
Protocol: as §1

MYO3A (MYO3 alpha) = molecular target: T20, MYO3A (MYO3 alpha) (Homo sapiens, UniProt Q8NEV4); conditions: read-out: Percentage of inhibition
T20 construct: purchased Life Technologies
Protocol: as §1

MYO3B (MYO3 beta) = molecular target: T21, MYO3B (MYO3 beta) (Homo sapiens, UniProt Q8WXR4); conditions: read-out: Percentage of inhibition
T21 construct: purchased Life Technologies (SelectScreen Whole Panel)
Protocol: as §1

PKMYT1 = PKMYT1 (Homo sapiens, UniProt Q99640); conditions: read-out: Percentage of inhibition
Protocol: as §1

PLK4 = molecular target: T22, PLK4 (Homo sapiens, UniProt O00444); conditions: read-out: Percentage of inhibition
T22 construct: purchased Life Technologies (SelectScreen Whole Panel)
Protocol: as §1

RET M918T = molecular target: T23, RET M918T (Homo sapiens, UniProt P07949, M918T); conditions: read-out: Percentage of inhibition
T23 construct: purchased Life Technologies
Protocol: as §1

RET V804M = molecular target: T24, RET V804M (Homo sapiens, UniProt P07949, V804M); conditions: read-out: Percentage of inhibition
T24 construct: purchased Life Technologies (SelectScreen service)
Protocol: as §1

RIPK3 = molecular target: T25, RIPK3 (Homo sapiens, UniProt Q9Y572); conditions: read-out: Percentage of inhibition
T25 construct: purchased Life Technologies (SelectScreen Whole Panel)
T25 sequence (Q9Y572 whole entry): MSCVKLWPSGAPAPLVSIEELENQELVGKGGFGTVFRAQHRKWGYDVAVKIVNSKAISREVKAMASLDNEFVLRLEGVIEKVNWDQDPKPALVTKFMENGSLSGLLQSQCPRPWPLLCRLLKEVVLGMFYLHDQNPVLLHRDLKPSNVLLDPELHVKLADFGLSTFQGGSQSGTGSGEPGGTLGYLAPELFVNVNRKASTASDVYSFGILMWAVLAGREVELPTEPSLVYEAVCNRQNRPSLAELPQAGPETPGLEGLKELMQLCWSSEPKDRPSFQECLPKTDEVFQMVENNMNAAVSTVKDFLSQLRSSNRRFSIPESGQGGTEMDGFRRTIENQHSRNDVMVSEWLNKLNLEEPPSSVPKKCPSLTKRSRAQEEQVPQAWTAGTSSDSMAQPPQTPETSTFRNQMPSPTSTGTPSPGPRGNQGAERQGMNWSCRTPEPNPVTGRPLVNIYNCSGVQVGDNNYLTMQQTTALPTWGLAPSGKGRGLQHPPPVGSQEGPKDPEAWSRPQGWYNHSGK
Protocol: as §1

SLK = molecular target: T26, SLK (Homo sapiens, UniProt Q9H2G2); conditions: read-out: Percentage of inhibition
T26 construct: purchased Life Technologies
T26 sequence (Q9H2G2 whole entry): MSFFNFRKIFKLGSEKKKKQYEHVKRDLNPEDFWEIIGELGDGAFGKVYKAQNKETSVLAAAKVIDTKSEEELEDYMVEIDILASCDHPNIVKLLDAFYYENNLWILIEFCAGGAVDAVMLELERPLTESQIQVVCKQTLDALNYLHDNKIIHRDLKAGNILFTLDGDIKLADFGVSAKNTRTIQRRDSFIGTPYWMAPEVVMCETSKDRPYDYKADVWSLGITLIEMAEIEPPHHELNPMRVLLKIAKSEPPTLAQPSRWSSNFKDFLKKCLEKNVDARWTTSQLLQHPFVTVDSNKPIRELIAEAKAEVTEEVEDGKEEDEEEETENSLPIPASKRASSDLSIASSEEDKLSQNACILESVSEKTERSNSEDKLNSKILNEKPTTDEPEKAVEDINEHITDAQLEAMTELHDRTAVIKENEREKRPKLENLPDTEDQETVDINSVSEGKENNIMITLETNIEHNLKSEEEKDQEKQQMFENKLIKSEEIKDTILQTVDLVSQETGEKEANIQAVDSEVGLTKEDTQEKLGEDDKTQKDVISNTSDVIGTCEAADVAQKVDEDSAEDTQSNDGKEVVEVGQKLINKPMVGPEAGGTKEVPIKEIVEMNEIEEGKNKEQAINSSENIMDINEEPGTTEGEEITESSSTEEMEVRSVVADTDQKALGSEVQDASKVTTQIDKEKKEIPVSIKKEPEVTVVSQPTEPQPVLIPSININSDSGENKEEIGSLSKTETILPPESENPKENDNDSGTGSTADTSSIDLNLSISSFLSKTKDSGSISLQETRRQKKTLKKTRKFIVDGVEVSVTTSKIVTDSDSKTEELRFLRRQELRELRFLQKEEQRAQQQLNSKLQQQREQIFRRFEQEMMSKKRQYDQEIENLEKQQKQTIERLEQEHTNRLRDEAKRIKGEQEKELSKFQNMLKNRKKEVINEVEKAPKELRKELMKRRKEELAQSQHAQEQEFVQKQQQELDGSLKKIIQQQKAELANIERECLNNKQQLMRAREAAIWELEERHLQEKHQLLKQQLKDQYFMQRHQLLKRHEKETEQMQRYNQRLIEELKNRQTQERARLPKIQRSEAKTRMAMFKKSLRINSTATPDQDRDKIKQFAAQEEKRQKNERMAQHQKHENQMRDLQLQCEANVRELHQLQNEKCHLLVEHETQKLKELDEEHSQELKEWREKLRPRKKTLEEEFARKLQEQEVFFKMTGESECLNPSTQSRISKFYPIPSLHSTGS
Protocol: as §1

STK17B (DRAK2) = molecular target: T27, STK17B (DRAK2) (Homo sapiens, UniProt O94768); conditions: ATP Km, read-out: Percentage of inhibition
T27 construct: purchased Life Technologies
Protocol: as §1

STK32C (YANK3) = molecular target: T28, STK32C (YANK3) (Homo sapiens, UniProt Q86UX6); conditions: read-out: Percentage of inhibition
T28 construct: purchased Life Technologies (SelectScreen Whole Panel)
Protocol: as §1

STK38 (NDR) = molecular target: T29, STK38 (NDR) (Homo sapiens, UniProt Q15208); conditions: read-out: Percentage of inhibition
T29 construct: purchased Life Technologies (SelectScreen Whole Panel service)
T29 sequence (Q15208 whole entry): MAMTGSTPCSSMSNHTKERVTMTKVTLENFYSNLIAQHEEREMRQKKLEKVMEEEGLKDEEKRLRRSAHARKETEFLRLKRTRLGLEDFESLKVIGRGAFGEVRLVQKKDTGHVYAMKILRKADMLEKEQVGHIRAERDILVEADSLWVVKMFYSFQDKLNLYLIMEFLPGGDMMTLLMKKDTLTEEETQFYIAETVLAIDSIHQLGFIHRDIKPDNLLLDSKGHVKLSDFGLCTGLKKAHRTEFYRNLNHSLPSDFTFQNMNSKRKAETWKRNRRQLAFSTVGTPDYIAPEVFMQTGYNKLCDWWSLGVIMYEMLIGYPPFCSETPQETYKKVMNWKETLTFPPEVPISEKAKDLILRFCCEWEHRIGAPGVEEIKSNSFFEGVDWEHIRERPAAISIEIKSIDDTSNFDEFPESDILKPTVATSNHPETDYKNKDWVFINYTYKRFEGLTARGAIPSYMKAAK
Protocol: as §1

TESK2 = molecular target: T30, TESK2 (Homo sapiens, UniProt Q96S53); conditions: read-out: Percentage of inhibition
T30 construct: purchased Life Technologies
T30 sequence (Q96S53 whole entry): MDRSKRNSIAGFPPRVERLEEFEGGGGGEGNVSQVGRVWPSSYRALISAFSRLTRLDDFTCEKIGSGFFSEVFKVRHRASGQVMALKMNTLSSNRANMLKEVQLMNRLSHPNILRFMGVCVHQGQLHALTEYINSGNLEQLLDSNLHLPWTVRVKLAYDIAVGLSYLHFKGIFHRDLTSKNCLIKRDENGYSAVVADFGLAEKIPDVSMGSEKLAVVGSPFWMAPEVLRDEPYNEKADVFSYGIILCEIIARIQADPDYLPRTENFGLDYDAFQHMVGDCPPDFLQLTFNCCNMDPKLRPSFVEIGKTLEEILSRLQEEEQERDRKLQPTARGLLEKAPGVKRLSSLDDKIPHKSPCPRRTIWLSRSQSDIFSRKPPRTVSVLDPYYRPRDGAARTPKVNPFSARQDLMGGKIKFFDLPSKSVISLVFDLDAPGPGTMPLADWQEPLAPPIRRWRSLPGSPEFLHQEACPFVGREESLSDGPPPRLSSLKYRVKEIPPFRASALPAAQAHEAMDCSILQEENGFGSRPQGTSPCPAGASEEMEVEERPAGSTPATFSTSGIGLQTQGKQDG
Protocol: as §1

TGFBR1 (ALK5) = molecular target: T31, TGFBR1 (ALK5) (Homo sapiens, UniProt P36897); conditions: read-out: Percentage of inhibition
T31 construct: purchased Life Technologies (SelectScreen Whole Panel service)
Protocol: as §1

TGFBR2 = molecular target: T32, TGFBR2 (Homo sapiens, UniProt P37173); conditions: read-out: Percentage of inhibition
T32 construct: purchased Life Technologies (SelectScreen Whole Panel)
Protocol: as §1

TLK1 = TLK1 (Homo sapiens, UniProt Q9UKI8); conditions: read-out: Percentage of inhibition
Protocol: as §1

ZAK = molecular target: T33, ZAK (Homo sapiens, UniProt Q9NYL2); conditions: read-out: Percentage of inhibition
T33 construct: purchased Life Technologies
Protocol: as §1

T1 sequence (P27037 20-513): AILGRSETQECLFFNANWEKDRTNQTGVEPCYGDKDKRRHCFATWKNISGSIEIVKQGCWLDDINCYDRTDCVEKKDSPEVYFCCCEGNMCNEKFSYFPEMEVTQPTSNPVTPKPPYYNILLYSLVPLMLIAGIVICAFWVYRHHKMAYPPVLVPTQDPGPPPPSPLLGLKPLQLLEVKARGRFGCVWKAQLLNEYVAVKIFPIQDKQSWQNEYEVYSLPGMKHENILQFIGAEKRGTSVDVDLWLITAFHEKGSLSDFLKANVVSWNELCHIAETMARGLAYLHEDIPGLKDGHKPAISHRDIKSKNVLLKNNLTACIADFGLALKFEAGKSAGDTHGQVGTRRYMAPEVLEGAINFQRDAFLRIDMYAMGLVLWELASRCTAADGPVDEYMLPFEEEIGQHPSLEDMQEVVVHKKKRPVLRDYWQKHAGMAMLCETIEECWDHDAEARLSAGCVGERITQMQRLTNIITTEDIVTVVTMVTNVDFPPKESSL

COc1ccc2[nH]c3c(=O)[nH]c4ccc(O)cc4c3c2c1 [Compound 55, 2-Hydroxy-10-methoxy-5,7-dihydro-6H-indolo[2,3-c]quinolin-6-one]
inhibition at 1 µM (ACVR2A): 8% | inhibition at 1 µM (ALK L1196M): 15% | inhibition at 1 µM (AXL R499C): 35% | inhibition at 1 µM (CAMKK2 (CaMKK beta)): 10% | inhibition at 1 µM (CASK): -3% | inhibition at 1 µM (CDK16 (PCTK1)/cyclin Y): 38% | inhibition at 1 µM (CDK2/cyclin A1): 43% | inhibition at 1 µM (CDK3/cyclin E1): 50% | inhibition at 1 µM (EGFR (ErbB1) d746-750): 34% | inhibition at 1 µM (EIF2AK2 (PKR)): 74% | inhibition at 1 µM (EPHA6): 21% | inhibition at 1 µM (ERN1): 16% | inhibition at 1 µM (ERN2): 8% | inhibition at 1 µM (GAK): 90% | inhibition at 1 µM (KIT D816V): 77% | inhibition at 1 µM (KIT N822K): 45% | inhibition at 1 µM (KIT T670E): 63% | inhibition at 1 µM (KIT V559D T670I): 32% | inhibition at 1 µM (MAP3K14 (NIK)): 79% | inhibition at 1 µM (MAP4K3 (GLK)): 59% | inhibition at 1 µM (MASTL): 50% | inhibition at 1 µM (MERTK (cMER) A708S): 31% | inhibition at 1 µM (MKNK2 (MNK2)): 19% | inhibition at 1 µM (MYO3A (MYO3 alpha)): 33% | inhibition at 1 µM (MYO3B (MYO3 beta)): 53% | inhibition at 1 µM (PKMYT1): 14% | inhibition at 1 µM (PLK4): 50% | inhibition at 1 µM (RET M918T): 94% | inhibition at 1 µM (RET V804M): 88% | inhibition at 1 µM (RIPK3): -6% | inhibition at 1 µM (SLK): 40% | inhibition at 1 µM (STK17B (DRAK2)): 93% | inhibition at 1 µM (STK32C (YANK3)): 1% | inhibition at 1 µM (STK38 (NDR)): 12% | inhibition at 1 µM (TESK2): 3% | inhibition at 1 µM (TGFBR1 (ALK5)): 10% | inhibition at 1 µM (TGFBR2): 102% | inhibition at 1 µM (TLK1): 68% | inhibition at 1 µM (ZAK): 4%
